Assay results reported in US7531194B2, “Plant extracts for the treatment of rheumatoid arthritis” (Development Center for Biotechnology, priority 2006, dated 2009).

Tests used:
CIA rats = experiment: Maximum arthritic index (MAI) of CIA rats fed PA crude extracts (Embodiment 2); format: in vivo, Lewis rats; settings: gavage until Day 45, PA-H 375, PA-L 75, indomethacin 2.5 mg/kg/day, FIG. 4
Description: The animal test scheme is shown as FIG. 2. Bovine collagen Type II (Bovine C II) was dissolved in 0.1 M acetic acid solution, stirred to dissolve thoroughly, and formulated into solutions with concentrations of 1.5 and 3 mg/ml, which were stored in 4° C. for later use. For the first immune injection, 100 μl of C II solution was emulsified with an equal amount of CFA, and injected subcutaneously (200 μl/rat) in the root portions of tails of the rats after the emulsification was complete. […] After about 15 days, the second immunization was done. 100 μl of C II solution was emulsified with an equal amount of IFA, and injected subcutaneously (200 μl/rat) in the root portions of tails of the rats after the emulsification was complete. Approximately from Day 20, the symptoms of arthritis were observed (CIA rats), and PA and indomethacin were fed until Day 45. [table] 2. Evaluation of RA examination: evaluated in maximum arthritic index (MAI) After immunization, the rats were observed three times a week. The changes of redness and swelling or the like in limbs were recorded, and photographs were taken and filed for comparison. […] Maximum arthritic index, average MAI for each group was calculated as follows: Average MAI=Total of MAI recorded in limbs of each rat (0: no CIA occurs, 16: highest score)/4/total rat number of each group

C-reactive protein (CRP) = experiment: Serum C-reactive protein (CRP) analysis of CIA rats fed PA crude extracts (Embodiment 2); format: in vivo, Lewis rats
Description: The animal test scheme is shown as FIG. 2. Bovine collagen Type II (Bovine C II) was dissolved in 0.1 M acetic acid solution, stirred to dissolve thoroughly, and formulated into solutions with concentrations of 1.5 and 3 mg/ml, which were stored in 4° C. for later use. For the first immune injection, 100 μl of C II solution was emulsified with an equal amount of CFA, and injected subcutaneously (200 μl/rat) in the root portions of tails of the rats after the emulsification was complete. […] After about 15 days, the second immunization was done. 100 μl of C II solution was emulsified with an equal amount of IFA, and injected subcutaneously (200 μl/rat) in the root portions of tails of the rats after the emulsification was complete. Approximately from Day 20, the symptoms of arthritis were observed (CIA rats), and PA and indomethacin were fed until Day 45. [table] 1. CRP ELISA kit was a pre-coated microplate, into which 0.1 ml of appropriately diluted serum sample could be added directly. After being reacted for 1 hour at room temperature, it was washed by the washing buffer four times. 2. Rabbit anti-rat C-reactive protein (CRP) was combined with HRP Ab, diluted with the washing buffer 100 times, and then 0.1 ml was added into each well. […] Finally, O.D value was read out at the wavelength of 450 nm. […]

With COc1ccc2c(c1)c(CC(=O)O)c(C)n2C(=O)c1ccc(Cl)cc1 [indomethacin, Indomethacin] the “effect on the arthritic indices (MAI) of CIA rats” value (CIA rats) was “most preferred”, the “effect on serum CRP concentration” value (C-reactive protein (CRP); Day 35, PA-H 375, PA-L 75, indomethacin 2.5 mg/kg/day, FIG. 7) was “efficiently inhibited” and the “effect on serum CRP concentration” value (C-reactive protein (CRP); Day 45, FIG. 7) was “same effects still exist”.
